Assay results: patent US8729009B2, “Lysine compounds and their use in site- and chemoselective modification of peptides and proteins” (Stichting Het Nederlands Kanker Instituut, priority 2009, dated 2014)

Assay: Solubility of the thiolysine-modified peptides in the ligation buffer
Assay type: physicochemical
Conditions: Tris-HCl pH 7.5 buffer used during the ligation reaction
Text: This is not surprising as this peptide is made up for ≈50% of hydrophobic amino acids and contains 3 beta-strands in the native PCNA protein (see Supporting Information). Besides performing the ubiquitin ligations with an excess of peptide (rxn 1-3 and 6-16, FIGS. 6 and 7), it was also observed that the use of (roughly) equimolar amounts of ubiquitin and peptide (rxn 4, 5 FIG. 6 and FIGS. 8-10) allowed ligation. In order to be able to develop the here presented ligation methodology for solid phase peptide synthesis, with the peptide being anchored to the solid support, it is important to fully consume all peptide. In order to confirm that a polar organic solvent is compatible with the reaction conditions, we repeated the ubiquitin ligation of the H2B peptide TKAVTK*YTSSK, using a DMSO stock of the peptide, up to a final concentration of 10% DMSO (rxn 14-16, FIG. 7).

Substance: GDAWISC*AK*DGVKFSASGELGNGNIKLSQ [Peptide 1]
- solubility: only soluble in polar organic solvents such as DMF and DMSO
